From patent US12268694B2, “Combination pharmaceutical agents as RSV inhibitors” (Enanta Pharmaceuticals, Inc., priority 2017, dated 2025)
Where two headings read alike, the source gives them in different places.

Tested on: genotype A, "Long" strain RSV
Assay: RSV-A assay: CPE protection in HEp-2 cells, ATPlite readout
Format: cell-based, human respiratory syncytial virus
Text: HEp-2 cells, (originally derived from tumors grown in irradiated-cortisonised weanling rats that had been injected with epidermoid carcinoma tissue from a person's larynx, but later found to be indistinguishable from HeLa cells by PCR DNA analysis), were used for the culturing of genotype A, “Long” strain RSV. Flasks were inoculated with RSV and viral stocks were collected once cytopathic effect (CPE) was greater than 90%. Viral stocks in 25% sucrose media were snap frozen using liquid nitrogen to increase viral stability. Viral stock titers were quantified by tissue culture infectious dose 50% (TCID50) using 8,000 cells per well and 3-fold viral dilutions across a 96-well plate, cultured for 4 days. Viral stock titers were also quantified by a plaque forming unit assay, as described elsewhere.
Following extensive parameter testing, the final assay is run as follows: HEp-2 cells are seeded into the inner 60 wells of a 96-well plate at 8,000 cells per well in a volume of 50 μL using Growth Media (DMEM without phenol red, 1% L-Glut, 1% Penn/Strep, 1% nonessential amino acids, 10% heat-inactivated FBS). 2-fold serial dilutions of control and test compounds are added to the wells in duplicate in a total volume of 25 μL. Viral stock is then added to the wells at a multiplicity of infection (MOI) of 0.1 in a volume of 25 μL, bringing the total volume of each well to 100 μL. The MOI is calculated using the PFU/mL, or TCID50 if unavailable. Each 96-well plate has a control column of 6 wells with cells and virus but no compound (negative control, max CPE), a column with cells but no compound or virus (positive control, minimum CPE), and a column with no cells or virus or compound (background plate/reagent control). The control wells with cells but no virus are given an additional 25 μL of growth media containing an equal quantity of sucrose as those wells receiving the viral stock in order to keep consistent in media and volume conditions. The outer wells of the plate are filled with 125 μL of moat media (DMEM, 1% Penn/Strep) to act as a thermal and evaporative moat around the test wells. Following a 5-day incubation period, the plates are read using ATPlite (50 μL added per well), which quantifies the amount of ATP (a measure of cell health) present in each well. Assay plates are read using the Envision luminometer. In parallel, cytotoxicity is examined on an additional 96-well plate treated in an identical manner, but substituting the 25 μL of viral stock for 25 μL of growth media. […] EC50 ranges are as follows: A <0.4 μM; B 0.4-0.8 μM; C >0.8 μM and CC50 ranges are as follows: A >50 μM; B 10-50 μM; C <10 μM.

[1] = human respiratory syncytial virus, HEp-2, read-out: Human RSV-A (“Long” strain) EC50
[2] = HEp-2 cells, RSV-A Long strain, ATPlite readout, read-out: Human RSV-A (“Long” strain) EC50

Structure (SMILES) | EC50 [1] [µM] | EC50 [2] [µM]
O=C1Nc2ccccc2C(c2ccccc2)=NC1Nc1nnc(-c2cccnc2N2C3CCC2COC3)o1 (centres unmarked) [Example 265] | > 0.8 | 
O=C1Nc2ccccc2C(c2ccccc2)=N[C@@H]1Nc1nnc(-c2nc(C(F)(F)F)sc2C2=CCOCC2)o1 [Example 453] | < 0.4 | 
C[C@@H]1COCCN1c1cc(C#N)ccc1-c1nnc(N[C@H]2N=C(c3ccccc3)c3ccccc3NC2=O)o1 [Example 285] | < 0.4 | 
CC1(c2nnc(NC3N=C(c4ccccc4)c4ccccc4NC3=O)o2)CCNC1 (centres unmarked) [Example 223] | > 0.8 | 
CCOC1(c2nc(-c3nnc(N[C@H]4N=C(c5ccccc5)c5ccccc5NC4=O)o3)c(N3CCOCC3)s2)CCC1 (stereo in doubt) [Example 458] | < 0.4 | 
C[C@H]1CN(c2cc(C#N)cnc2-c2nnc(N[C@H]3N=C(c4ccccc4)c4ccccc4NC3=O)o2)CCO1 [Example 329] | < 0.4 | 
O=C1Nc2ccccc2C(c2ccccc2)=NC1Nc1nnc(-c2ccncc2N2CCOCC2)o1 (centres unmarked) [Example 142] | 0.4 to 0.8 | 
CC(C)(O)c1nc(-c2nnc(N[C@H]3N=C(c4ccccc4)c4ccccc4NC3=O)o2)c(N2CCOCC2)s1 [Example 437] | < 0.4 | 
CC(C)c1nnc(NC2N=C(c3ccccc3)c3ccccc3NC2=O)o1 (centres unmarked) [Example 188] | > 0.8 | 
O=C1Nc2ccccc2C(c2ccccc2)=NC1Nc1nnc(-c2ccccc2N2CCOCC2)[nH]1 (centres unmarked) [Example 367] | > 0.8 | 
O=C1Nc2ccccc2C(c2ccccc2)=N[C@@H]1Nc1nnc(-c2cn(C3CCC3)nc2N2CCOCC2)o1 [Example 430] | < 0.4 | 
CC1(c2nc(-c3nnc(N[C@H]4N=C(c5ccccc5)c5ccccc5NC4=O)o3)c(N3CCOCC3)s2)CCC1 [Example 478] | < 0.4 | 
O=C1Nc2ccccc2C(c2ccccc2)=N[C@@H]1Nc1nnc(-c2ccc(N3CCOCC3)cc2)o1 [Example 124a] | < 0.4 | 
O=C1Nc2ccccc2C(c2ccccc2)=NC1Nc1ncc(-c2ccc(Br)cc2)o1 (centres unmarked) [Example 370] | > 0.8 | 
O=C1Nc2ccccc2C(c2ccccc2)=NC1Nc1nnc(-c2cccnc2N2C[C@H]3C[C@@H]2CO3)o1 (some centres unmarked) [Example 264] | > 0.8 | 
O=C1Nc2ccccc2C(c2ccccc2)=NC1Nc1nnc([C@H]2CCCO2)o1 (some centres unmarked) [Example 198] | > 0.8 | 
O=C1Nc2ccccc2C(c2ccc(F)cc2)=NC1Nc1nnc(-c2ccc(F)cc2)o1 (centres unmarked) [Example 382] | > 0.8 | 
O=C1Nc2ccccc2C(c2ccccc2)=N[C@@H]1Nc1nnc(-c2cc(C(F)(F)F)sc2N2CCOCC2)o1 [Example 383] | < 0.4 | 
O=C1Nc2ccccc2C(c2ccccc2)=NC1Nc1nnc(-c2ccc(-n3cncn3)nc2)o1 (centres unmarked) [Example 225] | > 0.8 | 
O=C1Nc2ccccc2C(c2ccccc2)=NC1Nc1nnc(-c2cc(C(F)(F)F)cnc2N2CCOCC2)o1 (centres unmarked) [Example 146] | > 0.8 | 

Structure (SMILES) | EC50 [1] [µM] | EC50 [2] [µM]
O=C1Nc2ccccc2C(c2ccccc2)=N[C@@H]1Nc1nnc(-c2nc(-c3ccc(F)cn3)sc2N2CCOCC2)o1 [Example 389] | < 0.4 | 
O=C1Nc2ccccc2C(c2ccccc2)=N[C@@H]1Nc1nnc(-c2cnc(C(F)(F)F)nc2N2CC3CCC(C2)O3)o1 [Example 290] | > 0.8 | 
O=C1Nc2ccccc2C(c2ccccc2F)=NC1Nc1nnc(-c2ccc(F)cc2)o1 (centres unmarked) [Example 379] | > 0.8 | 
O=C1Nc2ccccc2C(c2ccccc2)=N[C@H]1Nc1nnc(-c2ccc(N3CCOCC3)cc2)o1 [Example 124b] | > 0.8 | 
O=C1Nc2ccccc2C(c2ccccc2)=N[C@@H]1Nc1nnc(-c2cc(C3CC3)sc2N2CCOCC2)o1 [Example 384] | < 0.4 | 
O=C1Nc2ccccc2C(c2ccccc2)=NC1Nc1nnc(-c2ccc(F)cc2)[nH]1 (centres unmarked) [Example 363] | > 0.8 | 
N#Cc1ccc(-c2nnc(NC3N=C(c4ccccc4)c4ccccc4NC3=O)[nH]2)cc1 (centres unmarked) [Example 365] | 0.4 to 0.8 | 
O=C1Nc2ccccc2C(c2ccccc2)=N[C@@H]1Nc1nnc(-c2nc(C3CCCCC3)sc2N2CCOCC2)o1 [Example 405] | < 0.4 | 
O=C1Nc2ccccc2C(c2ccccc2)=NC1Nc1nnc(CCC(F)(F)F)o1 (centres unmarked) [Example 192] | > 0.8 | 
CC1(C)C[C@@H]1c1nnc(NC2N=C(c3ccccc3)c3ccccc3NC2=O)o1 (some centres unmarked) [Example 205] | > 0.8 | 
O=C1Nc2ccccc2C(c2ccccc2)=N[C@@H]1Nc1ncc(-c2ncc(C(F)(F)F)cc2N2CCOCC2)o1 [Example 442] |  | < 0.4
O=C1Nc2ccccc2C(c2ccccc2)=NC1Nc1nnc(-c2c(F)cc(F)cc2N2CCOCC2)o1 (centres unmarked) [Example 170] |  | > 0.8
O=C1Nc2ccccc2C(c2ccccc2)=NC1Nc1nnc(-c2ccccc2-c2ccncc2)o1 (centres unmarked) [Example 226] | > 0.8 | 
COCCn1ccnc1-c1nnc(N[C@H]2N=C(c3ccccc3)c3ccccc3NC2=O)o1 [Example 306] | > 0.8 | 
CC(C)(O)CNc1cc(C(F)(F)F)cnc1-c1nnc(N[C@H]2N=C(c3ccccc3)c3ccccc3NC2=O)o1 [Example 297] | < 0.4 | 
O=C1Nc2ccccc2C(c2ccccc2)=N[C@@H]1Nc1nnc(-c2nc(-c3ccc(C(F)(F)F)nc3)sc2N2CCOCC2)o1 [Example 390] | < 0.4 | 
Cn1nnc(-c2ccc(-c3nnc(NC4N=C(c5ccccc5)c5ccccc5NC4=O)o3)cc2)n1 (centres unmarked) [Example 186] | > 0.8 | 
O=C1Nc2ccccc2C(c2ccccc2)=N[C@@H]1Nc1nnc(-c2ncc(C3=CCCCC3)cc2N2CCOCC2)o1 [Example 312] | 0.4 to 0.8 | 
O=C1Nc2ccccc2C(c2ccccc2)=NC1Nc1nnc(-c2ccc(-n3cncn3)cc2)o1 (centres unmarked) [Example 273] | 0.4 to 0.8 | 
O=C1Nc2ccccc2C(c2ccccc2)=NC1Nc1nnc(-c2ncc(F)cc2N2CCOCC2)o1 (centres unmarked) [Example 137] |  | > 0.8

Structure (SMILES) | EC50 [1] [µM] | EC50 [2] [µM]
O=C1Nc2ccccc2C(c2ccccc2)=NC1Nc1nnc(-c2cccc(F)c2N2CCOCC2)o1 (centres unmarked) [Example 148] | > 0.8 | 
O=C1Nc2ccccc2C(c2ccccc2)=NC1Nc1nnc(-c2ccc(-n3cncn3)c(F)c2)o1 (centres unmarked) [Example 216] | 0.4 to 0.8 | 
N#Cc1cccc(C2=NC(Nc3nnc(-c4ccc(F)cc4)o3)C(=O)Nc3ccccc32)c1 (centres unmarked) [Example 381] | > 0.8 | 
O=C1Nc2ccccc2C(c2ccccc2)=NC1Nc1nnc(-c2cccnc2N2C[C@H]3COC[C@H]3C2)o1 (some centres unmarked) [Example 267] | > 0.8 | 
CN(CC(C)(C)O)c1cc(C(F)(F)F)cnc1-c1nnc(N[C@H]2N=C(c3ccccc3)c3ccccc3NC2=O)o1 [Example 308] | > 0.8 | 
C[C@H]1COCCN1c1ncccc1-c1nnc(NC2N=C(c3ccccc3)c3ccccc3NC2=O)o1 (some centres unmarked) [Example 261] | > 0.8 | 
O=C1Nc2ccccc2C(c2ccccc2)=NC1Nc1nnc(-c2ccc(N3CCOCC3)cc2C(F)(F)F)o1 (centres unmarked) [Example 147] | > 0.8 | 
N#Cc1cnc(-c2nnc(N[C@H]3N=C(c4ccccc4)c4ccccc4NC3=O)o2)c(N2CCOCC2)c1 [Example 325] | < 0.4 | 
CC1(Nc2nnc(-c3ccc(F)cc3)o2)N=C(c2ccccc2)c2ccccc2NC1=O (centres unmarked) [Example 230] | > 0.8 | 
O=C1Nc2ccccc2C(c2ccccc2)=NC1Nc1nnc(C2CC3(CCNCC3)C2)o1 (centres unmarked) [Example 222] | > 0.8 | 
N#CCNc1cc(C(F)(F)F)cnc1-c1nnc(N[C@H]2N=C(c3ccccc3)c3ccccc3NC2=O)o1 [Example 331] | > 0.8 | 
CN1CCC(N2CCC[C@H]2c2nnc(NC3N=C(c4ccccc4)c4ccccc4NC3=O)o2)CC1 (some centres unmarked) [Example 228] | > 0.8 | 
O=C1Nc2ccccc2C(c2ccccc2)=N[C@@H]1Nc1nnc(-c2ccc(=O)[nH]c2N2CCOCC2)o1 [Example 156, (S)-3-((5-(2-morpholino-6-oxo-1,6-dihydropyridin-3-yl)-1,3,4-oxadiazol-2-yl)amino)-5-phenyl-1,3-dihydro-2H-benzo[e][1,4]diazepin-2-one] | > 0.8 | 
O=C1Nc2ccccc2C(c2ccccc2)=NC1Nc1nnc(-c2cccnc2N2CCCCC2)o1 (centres unmarked) [Example 241] | > 0.8 | 
O=C1Nc2ccccc2C(c2ccccc2)=NC1Nc1ncc(-c2ccccc2)s1 (centres unmarked) [Example 85] | > 0.8 | 
O=C1Nc2ccccc2C(c2ccccc2)=N[C@@H]1Nc1nnc(-c2cnc(C3CC3)nc2N2CCOCC2)o1 [Example 167] | < 0.4 | 
Cc1noc(C)c1-c1cc(C#N)ccc1-c1nnc(N[C@H]2N=C(c3ccccc3)c3ccccc3NC2=O)o1 [Example 320] | > 0.8 | 
O=C1Nc2ccccc2C(c2ccccc2)=NC1Nc1nnc(-c2c(F)cc(F)cc2N2CCOCC2)o1 (centres unmarked) [Example 171] |  | > 0.8
Cc1ccc(-c2nnc(N[C@H]3N=C(c4ccccc4)c4ccccc4NC3=O)o2)c(N2C3CCC2COC3)n1 [Example 280] | < 0.4 | 
